The record followed here is article PMC8037310, “Thrombin-Derived Peptides Potentiate the Activity of Gram-Positive-Specific Antibiotics against Gram-Negative Bacteria” (Molecules, 2021).

In data set [1] the test system is E. coli BW25113. It is filed as cell-based, Escherichia coli. The following applies: for FICi: BW25113, 20 h; for MICpep: synergist alone, E. coli BW25113, from checkerboard with rifampicin; for MSCpep: synergist concentration in the combination with rifampicin giving the lowest FICi; for MSCpep / MSCrif: E. coli BW25113; for MSCrif: rifampicin concentration in the combination giving the lowest FICi. The procedure: (§1) All peptides were screened for antimicrobial activity against E. coli BW25113, E. coli ATCC25922, and E. coli W3110. A select group of the peptides was further tested against E. coli mcr-1, E. coli EQASmcr-1 (EQAS 2016 412016126), E. coli EQASmcr-2 (EQAS 2016 KP37), E. coli EQASmcr-3 (EQAS 2017 2013-SQ352), K. pneumoniae ATCC13883, P. aeruginosa ATCC27853, and A. baumannii ATCC17978. The antimicrobial assay was performed according to CLSI guidelines. Bacteria were plated out directly from their glycerol stocks on blood agar plates, incubated overnight at 37 °C, and then kept in the fridge. The blood agar plates were only used for 2 weeks and then replaced.
(§2) One colony from a blood agar plates was inoculated in Lysogeny Broth (LB) at 37 °C until a 0.5 optical density at 600 nm (OD600) was reached (compared to the sterility control of LB). The bacterial suspension was diluted in fresh LB to 2.0 × 10^6 CFU/mL. The serial dilutions were prepared in polypropylene microtiter plates: a stock of the test compounds was prepared with a 2x final concentration in LB. Moreover, 100 µL of the stock was added to the wells of the top row of which 50 µL was used for the serial dilution. The bottom row of each plate was used as the positive (50 µL of LB) and negative controls (100 µL of LB) (6 wells each). Furthermore, 50 µL of the 2.0 × 10^6 CFU/mL bacterial stock was added to each well except for the negative controls, adding up to a total volume of 100 µL per well. The plates were sealed with a breathable seal and incubated for 20 h at 37 °C and 600 rpm.
(§3) Two 96-well plates were required per compound. A serial dilution of the compound was performed on two plates from row A–G using with LB as medium. Row H was filled with 25 µL medium. On a separate plate a negative control (8 wells, 100 μL medium) was prepared. For all concentrations of antibiotic a specific stock was prepared. 25 µL medium was added to the 0 µg/mL antibiotic columns (plate I, column 1–3). Of each antibiotic stock 25 µL was added to three columns to obtain triplicates for every condition. Both plates contained 50 µL in each well to which 50 µL bacterial stock was added (see the protocol of the MIC assays) and the plates were sealed. After incubation for 20 h at 37 °C while shaking, the breathable seals were removed and the density of the bacterial suspensions measured at 600 nm (OD600) using a Tecan Spark plate reader. The OD600 values were transformed to a 2D gradient with the negative control as minimum and the positive control (wells G1, G2, and G3) as maximum in excel. The FICi was calculated using Equation (1) with a FICi ≤ 0.5 indicating synergy. FICi = (MSCa/MICa) + (MSCb/MICb),(1)
(§4) Calculation of the FICi: MSCa = concentration of the […] in combination with the antibiotic that results in the lowest FICi. MICa = MIC of the antibiotic without synergist (row G). MSCb = concentration of the synergist in combination with the antibiotic that results in the lowest FICi. MICb = MIC of the synergist itself (Column 1–3, plate I).

The subject of data set [2] is E. coli BW25113. Briefly: Checkerboard assay with erythromycin. It is filed as cell-based, Escherichia coli. The following applies: for MSCery: erythromycin concentration in the combination with the synergist giving the lowest FICi, E. coli BW25113; for MIC of the peptide (MICpep): synergist alone, from checkerboard with erythromycin; for MIC of the peptide (MICpep) / MSCpeptide, minimum synergistic concentration: 20 h 37 °C; for MSCpeptide, minimum synergistic concentration: synergist concentration in the combination with erythromycin giving the lowest FICi, OD600; for FICi: with erythromycin vs E. coli BW25113, synergy defined as FICi ≤ 0.5. As to the method:
as §1, §2, §3, §4

For data set [3], the system named is defibrinated sheep blood (red blood cells). The experiment in a line: Hemolysis assay. The note with it: 200 µg/mL compound, 20 h incubation at 37 °C with defibrinated sheep blood, PBS 0.002% Tween20, absorbance 415 nm, relative to 0.1% Triton X-100; n=3 technical replicates. It is filed as cell-based. As to the method: Defibrinated sheep blood (Thermo Fisher Scientific) and a phosphate-buffered saline (PBS) buffer containing 0.002% Tween20 were used in this assay. The red blood cells were washed with buffer followed by centrifugation (400 g for 15 min at 4 °C). The red blood cells were then normalized to obtain a positive control read-out around 2.5 at 415 nm to stay in the linear range with the maximum sensitivity. A serial dilution of the compounds (200–1.56 µg/mL, 75 µL) was prepared in a 96-well plate. Each plate contained a positive control (0.1% Triton X-100 final concentration, 75 µL) and the negative control (buffer, 75 µL). After addition of normalized blood cells (75 µL), the plates were incubated for 20 h at 37 °C at 500 rpm. The plates were centrifuged (800× g for 5 min at room temperature). For the next step flat-bottom polystyrene plates were prepared with 100 µL buffer in each well. Aliquots of 25 µL supernatant from the centrifuged plates were then transferred to their respective wells in the flat-bottom plate. Absorbance values where measured at 415 nm and corrected for background (negative control) and transformed to a percentage hemolysis relative to the positive control.

Data set [4] relates to E. coli BW25113. Briefly: microbe, parasite or virus in culture. The following applies: antibiotic without synergist, E. coli BW25113. It is filed as cell-based, Escherichia coli. As to the method: as §1, §2, §3, §4

SMILES strings stand for the structures. “And” between values parts separate entries of the source, which are not always exact repeats. Equal entries are not always repeated. Where two headings read alike, the source gives them in different places. Square brackets hold non-standard residues; d marks the D form. Peptide text beside a SMILES is read from it.

For the compound `CC[C@H](C)[C@H](NC(=O)[C@H](C)NC(=O)[C@H](CCCCN)NC(=O)[C@H](CCC(N)=O)NC(=O)[C@@H](NC(=O)[C@H](Cc1c[nH]c2ccccc12)NC(=O)[C@H](CCCCN)NC(=O)[C@H](CCCCN)NC(=O)[C@H](CC(C)C)NC(=O)[C@H](CCCNC(=N)N)NC(=O)[C@H](Cc1ccccc1)NC(=O)[C@@H](N)C(C)C)[C@@H](C)CC)C(N)=O` [compound 18] (H-VFRLKKWIQKAI-NH2), in the data set with E. coli BW25113 [1], the FICi was 0.0781, the MICpep stood at 50 µg/mL and the MSCpep worked out at 3.125 µg/mL. For the same compound, in the data set on E. coli BW25113 [2], the MSCery stood at 12.5 µg/mL and the FICi worked out at 0.1250. In the data set on E. coli BW25113 [2] (E. coli BW25113, LB), the “MIC of the peptide (MICpep)” value was found to be 50 µg/mL and the “MSCpeptide, minimum synergistic concentration” value stood at 3.125 µg/mL. For the same compound, the Hemolysis in data set [3] was 2.3% and 2%.

Turning to `CC[C@@H](C)[C@@H](NC(=O)[C@H](NC(=O)[C@@H](CCCCN)NC(=O)[C@@H](CCC(N)=O)NC(=O)[C@H](NC(=O)[C@@H](Cc1c[nH]c2ccccc12)NC(=O)[C@@H](CCCCN)NC(=O)[C@@H](CCCCN)NC(=O)[C@@H](CC(C)C)NC(=O)[C@@H](CCCNC(=N)N)NC(=O)[C@@H](Cc1ccccc1)NC(=O)[C@H](N)C(C)C)[C@H](C)CC)C(C)C)C(N)=O` [peptide 20] (H-[dV][dF][dR][dL][dK][dK][dW][dI][dQ][dK][dV][dI]-NH2), in the data set on E. coli BW25113 [1], the FICi is 0.2813, the MSCrif is 0.25 µg/mL, the MICpep was 12.5 µg/mL and the MSCpep worked out at 3.125 µg/mL. Besides, the MSCery in the data set on E. coli BW25113 [2] was 3.125 µg/mL. Moreover, in the data set on E. coli BW25113 [2] (E. coli BW25113, LB), the “MIC of the peptide (MICpep)” value was determined as 6.25 µg/mL and the “MSCpeptide, minimum synergistic concentration” value turned out to be 3.13 µg/mL. The Hemolysis in data set [3] was 3.2% and 3%.

`CC[C@H](C)[C@H](N)C(=O)N[C@H](C(=O)N[C@@H](CCCCN)C(=O)N[C@@H](CCC(N)=O)C(=O)N[C@H](C(=O)N[C@@H](Cc1c[nH]c2ccccc12)C(=O)N[C@@H](CCCCN)C(=O)N[C@@H](CCCCN)C(=O)N[C@@H](CC(C)C)C(=O)N[C@@H](CCCNC(=N)N)C(=O)N[C@@H](Cc1ccccc1)C(=O)N[C@H](C(N)=O)C(C)C)[C@@H](C)CC)C(C)C` [peptide 21] (H-IVKQIWKKLRFV-NH2): in the data set with E. coli BW25113 [1], the FICi is reported as 0.3750, the MSCrif was 2 µg/mL, the MICpep was greater than 200 µg/mL and the MSCpep is 50 µg/mL. Moreover, in the data set with E. coli BW25113 [2], the MSCery worked out at 25 µg/mL and the FICi amounted to 0.2500. Besides, in the data set with E. coli BW25113 [2] (E. coli BW25113, LB), the “MIC of the peptide (MICpep)” value is given as greater than 200 µg/mL and the “MSCpeptide, minimum synergistic concentration” value is given as 50 µg/mL. Further, the Hemolysis in data set [3] is 2.2% and 2%.

For `CC[C@H](C)[C@H](NC(=O)[C@H](Cc1c[nH]c2ccccc12)NC(=O)[C@H](CCCCN)NC(=O)[C@H](CCCCN)NC(=O)[C@H](CC(C)C)NC(=O)[C@H](CCCNC(=N)N)NC(=O)[C@H](Cc1ccccc1)NC(=O)[C@@H](NC(=O)[C@@H](N)Cc1cnc[nH]1)C(C)C)C(=O)N[C@@H](CCC(N)=O)C(=O)N[C@@H](CCCCN)C(=O)N[C@H](C(=O)N[C@H](C(=O)N[C@@H](CC(=O)O)C(=O)N[C@@H](CCC(N)=O)C(=O)N[C@@H](Cc1ccccc1)C(=O)NCC(=O)N[C@@H](CCC(=O)O)C(=O)O)[C@@H](C)CC)C(C)C` [peptide 2] (H-HVFRLKKWIQKVIDQFGE-OH), in data set [3], the Hemolysis was 8.7% and 9%.

Consider `CC[C@H](C)[C@H](NC(=O)[C@@H](NC(=O)[C@H](C)NC(=O)[C@H](CCC(N)=O)NC(=O)[C@@H](NC(=O)[C@H](Cc1c[nH]c2ccccc12)NC(=O)[C@H](CCCCN)NC(=O)[C@H](CCCCN)NC(=O)[C@H](CC(C)C)NC(=O)[C@H](CCCNC(=N)N)NC(=O)[C@H](Cc1ccccc1)NC(=O)[C@@H](N)C(C)C)[C@@H](C)CC)C(C)C)C(N)=O` [compound 17] (H-VFRLKKWIQAVI-NH2), for which, in the data set with E. coli BW25113 [1], the FICi is recorded as 0.2656, the MICpep turned out to be 25 µg/mL and the MSCpep is 6.25 µg/mL. In the data set with E. coli BW25113 [2], the MSCery stood at 6.25 µg/mL and the FICi is greater than 0.5. In addition, in the data set on E. coli BW25113 [2] (E. coli BW25113, LB), the “MIC of the peptide (MICpep)” value was found to be 12.5 µg/mL and the “MSCpeptide, minimum synergistic concentration” value stood at 6.25 µg/mL. The Hemolysis in data set [3] is 20.7% and 21%.

Turning to `CC[C@H]1OC(=O)[C@H](C)[C@@H](O[C@H]2C[C@@](C)(OC)[C@@H](O)[C@H](C)O2)[C@H](C)[C@@H](O[C@@H]2O[C@H](C)C[C@H](N(C)C)[C@H]2O)[C@](C)(O)C[C@@H](C)C(=O)[C@H](C)[C@@H](O)[C@]1(C)O` [erythromycin, reference compound], in the data set with E. coli BW25113 [2] (Escherichia coli, antibiotic without synergist, E. coli BW25113, LB, read-out: MIC of erythromycin (MICery)), the MIC fell in the range of 100 to 200 µg/mL. In the data set with E. coli BW25113 [2] (antibiotic without synergist, E. coli BW25113, LB), the “MIC of erythromycin (MICery)” value was > 100 µg/mL and 200 µg/mL.

With `CC[C@H](C)[C@H](NC(=O)[C@H](Cc1c[nH]c2ccccc12)NC(=O)[C@H](CCCCN)NC(=O)[C@H](CCCCN)NC(=O)[C@H](CC(C)C)NC(=O)[C@H](CCCNC(=N)N)NC(=O)[C@H](Cc1ccccc1)NC(=O)[C@@H](NC(=O)[C@@H](N)Cc1c[nH]cn1)C(C)C)C(=O)N[C@@H](CCC(N)=O)C(=O)N[C@@H](CCCCN)C(=O)N[C@H](C(=O)N[C@H](C(=O)N[C@@H](CC(=O)O)C(=O)N[C@@H](CCC(N)=O)C(=O)N[C@@H](Cc1ccccc1)C(=O)NCC(=O)N[C@@H](CCC(=O)O)C(=O)O)[C@@H](C)CC)C(C)C` [peptide 2] (H-HVFRLKKWIQKVIDQFGE-OH), in the data set on E. coli BW25113 [1], the MSCrif was 0.5 µg/mL, the MICpep was found to be 200 µg/mL and the MSCpep was 50 µg/mL. Besides, in the data set with E. coli BW25113 [2], the MSCery stood at 25 µg/mL and the FICi is recorded as 0.3750. Besides, in the data set on E. coli BW25113 [2] (E. coli BW25113, LB), the “MIC of the peptide (MICpep)” value stood at 200 µg/mL and the “MSCpeptide, minimum synergistic concentration” value was found to be 50 µg/mL.

For the compound `CO[C@@H]1[C@@H](OC(N)=O)[C@@H](O)[C@H](Oc2ccc3c(O)c(NC(=O)c4ccc(O)c(CC=C(C)C)c4)c(=O)oc3c2C)OC1(C)C` [novobiocin, reference compound], the MIC with E. coli BW25113 [4] (Escherichia coli, read-out: MIC of novobiocin (MICnovo)) was greater than 200 µg/mL. The “MIC of novobiocin (MICnovo)” value in the data set with E. coli BW25113 [4] is greater than 200 µg/mL.
